Measured values published in patent publication US9403874B2, “Peptides and use thereof” (IL YANG PHARM. CO.,LTD., priority 2012, dated 2016).

Experiments:
Assay type in all cases: cell-based
Details in all cases: 100 ng/me of peptide; EBV-infected B cells stimulated with anti-CD150; ELISA of culture supernatant
[1] = system: IL-1A; test: Reduction of IL-1A secretion in activated B cells (ELISA)
Description: (§1) In order to determine the activity of the novel peptides synthesized in Example 1 for reducing the secretion of inflammatory cytokines, the activated pathogenic B cells were treated with each of the 18 types of synthesized novel peptides and the reduction in secretion of inflammatory cytokines from the B cells was monitored.
(§2) Specifically, in order to determine whether the novel peptides could weaken the pathogenic B cells which are involved in the development of disease symptoms, the in vitro B cells model which is similar to the joint infiltrative B cells of rheumatoid arthritis was used. The activated pathogenic B cell was generated by stimulating Ebstein Barr virus (EBV)-infected B cells with anti-CD150 antibodies, and the cells were treated with […] of each of the 18 types of novel peptide.
(§3) In order to confirm the effect of 18 types of novel peptides in reducing inflammatory cytokines, the secretion amount of various cytokines (IL-1A, IL-1B, IL-2, IL-4, IL-5, IL-6, IL-8, IL-10, IL-12A, IL-13, IL-17A, GM-CSF, IL-34) secreted from the activated B cells was measured. The supernatants of B cell culture were analyzed enzyme-linked immunosorbent assay (ELISA), and the difference in absorbance (450 nm-570 nm) of the color developing reagent was measured as test results. Based on the measured difference in absorbance (450 nm-570 nm) of the color developing reagent, the absorbance of cytokines secreted when treated with the 18 types of novel […] was calculated in percentage, while setting the absorbance corresponding to the cytokines secreted from the activated B cells stimulated by anti-CD150 as 100%.

[2] = system: GM-CSF; test: Reduction of GM-CSF secretion in activated B cells (ELISA)
Description: as §1, §2, §3

[3] = system: IL-8; test: Reduction of IL-8 secretion in activated B cells (ELISA)
Description: as §1, §2, §3

[4] = system: IL-1B; test: Reduction of IL-1B secretion in activated B cells (ELISA)
Description: as §1, §2, §3

[5] = system: IL-12A; test: Reduction of IL-12A secretion in activated B cells (ELISA)
Description: as §1, §2, §3

[6] = system: IL-6; test: Reduction of IL-6 secretion in activated B cells (ELISA)
Description: as §1, §2, §3

[7] = system: IL-17A; test: Reduction of IL-17A secretion in activated B cells (ELISA)
Description: as §1, §2, §3

[8] = system: IL-2; test: Reduction of IL-2 secretion in activated B cells (ELISA)
Description: as §1, §2, §3

[9] = system: IL-5; test: Reduction of IL-5 secretion in activated B cells (ELISA)
Description: as §1, §2, §3

[10] = system: IL-4; test: Reduction of IL-4 secretion in activated B cells (ELISA)
Description: as §1, §2, §3

[11] = system: IL-34; test: Reduction of IL-34 secretion in activated B cells (ELISA)
Description: as §1, §2, §3

[12] = system: IL-10; test: Reduction of IL-10 secretion in activated B cells (ELISA)
Description: as §1, §2, §3

[13] = system: IL-13; test: Reduction of IL-13 secretion in activated B cells (ELISA)
Description: as §1, §2, §3

Substance	Inhibition rate of each cytokine compared to CD150-stimulated EBV-t B cells (%) IL-1A [1]	Inhibition rate of each cytokine compared to CD150-stimulated EBV-t B cells (%) GM-CSF [2]	Inhibition rate of each cytokine compared to CD150-stimulated EBV-t B cells (%) IL-8 [3]	Inhibition rate of each cytokine compared to CD150-stimulated EBV-t B cells (%) IL-1B [4]	Inhibition rate of each cytokine compared to CD150-stimulated EBV-t B cells (%) IL-12A [5]	Inhibition rate of each cytokine compared to CD150-stimulated EBV-t B cells (%) IL-6 [6]	Inhibition rate of each cytokine compared to CD150-stimulated EBV-t B cells (%) IL-17A [7]	Inhibition rate of each cytokine compared to CD150-stimulated EBV-t B cells (%) IL-2 [8]	Inhibition rate of each cytokine compared to CD150-stimulated EBV-t B cells (%) IL-5 [9]	Inhibition rate of each cytokine compared to CD150-stimulated EBV-t B cells (%) IL-4 [10]	Inhibition rate of each cytokine compared to CD150-stimulated EBV-t B cells (%) IL-34 [11]	Inhibition rate of each cytokine compared to CD150-stimulated EBV-t B cells (%) IL-10 [12]	Inhibition rate of each cytokine compared to CD150-stimulated EBV-t B cells (%) IL-13 [13]
PSPRDGRTDG (SIS-1#6 peptide)	12.0%	21.2%	28.0%	15.2%	30.8%	33.9%	42.2%	23.1%	15.6%	20.5%	31.0%	4.5%	29.4%
MSLPSPRDGRTDG (SIS-1#4 peptide)	18.1%	18.5%	32.0%	16.5%	33.9%	32.3%	43.0%	18.8%	20.4%	20.8%	16.8%	18.0%	23.1%
DGRTDG (SIS-1#9 peptide)	20.4%	15.0%	15.4%	18.2%	20.8%	18.8%	9.2%	15.5%	16.2%	16.0%	15.0%	14.2%	13.2%
RDGR (SIS-1#15 peptide)	11.5%	1.5%	15.0%	5.7%	10.8%	4.8%	10.1%	12.7%	6.4%	6.3%	6.0%	7.2%	7.2%
RDGRTDG (SIS-1#2 peptide)	23.8%	19.0%	25.2%	18.2%	30.1%	29.8%	39.8%	15.1%	25.4%	23.8%	25.4%	19.8%	23.8%
